This is an account of results in PMC12114375, “Discovery of Hydrazineyl Amide Derivative of Pseudolaric Acid B for Reprogramming Tumor-Associated Macrophages Against Tumor Growth” (Molecules, 2025).

Assay [1] deals with ARG1 mRNA expression in RAW 264.7 cells. Kind of assay: qRT-PCR of ARG1 mRNA in IL-4/IL-13-stimulated RAW 264.7 cells. It counts as cell-based, mouse. To be noted: Mus musculus, RAW264.7, IL-4/IL-13 (20 ng/mL) plus compound 10 μM, 12 h, stimulated control = 100%, mean ± SD, read-out: ARG1 mRNA Relative Expression (%). An excerpt:
We first investigated the impacts of a series of commercially available natural pseudolaric acids or their O-pyranosides (Figure 1) on the pro-tumoral phenotype of TAMs, which play a critical role in anti-tumor immune response modulation. […] In contrast, M1-biased macrophages combat tumor growth and bacterial infections by expressing inducible nitric oxide synthase 2 (NOS2), which catalyzes the production of nitric oxide (NO). Recognizing the pivotal roles of ARG1 and NOS2, we utilized these molecules as key biomarkers and effectors for assessing macrophage immune function. In our experiments, the mouse monocyte–macrophage leukemia cell line RAW 264.7 was induced with IL-4/IL-13 to acquire an M2-like pro-tumoral phenotype. Concurrently, the cells were treated with the pseudolaric acid-related natural products 1–7 at a concentration of 10 μM for 12 h. Additionally, PLX3397 was used as a positive control at a concentration of 0.5 μM. […] As shown in Table 1 and Figure S1A, pseudolaric acid B (1), its deacetoxyl analogue 2 (pseudolaric acid C), and β-D-glucoside 7 substantially attenuated the upregulation of ARG1 mRNA expression induced by IL-4/IL-13, with statistically significant effects. In contrast, bis-carboxylic acids analogs 4 (pseudolaric acid C2) and 6 (demethoxydeacetoxypseudolaric acid B) have no significant impact on ARG1 mRNA expression.
With these carboxylic acid-modified derivatives in hand, we investigated their impact at 10 μM on ARG1 and NOS2 mRNA expression in RAW 264.7 cells pre-stimulated with IL-4/IL-13 to evaluate the effects on the pro-tumor phenotype of macrophages. […] Further removal of one hydroxyl from the glycerol moiety 15 further enhanced the inhibitory effect on ARG1 expression but had no significant impact on NOS2 expression.
Total RNA was isolated from cells using the EZ-press RNA Purification Kit (EZBioscience, Suzhou, China) and subjected to reverse transcription with the 5×HiScript II qRT SuperMix II (Vazyme, Nanjing, China). PCR was performed with the 2×ChamQ Universal SYBR qPCR Master Mix (Vazyme, Nanjing, China). All primers for qRT-PCR are described in Table S1. The 2^−∆∆Ct method was utilized to calculate the fold change in gene expression, with the expression levels in the stimulated group set as the baseline for normalization.

The test system of assay [2] is tumor-infiltrating immune cells in Hepa1-6 tumor. Nature of the assay: Flow cytometric analysis of tumor-infiltrating immune cells in the Hepa1-6 model. It counts as in vivo, C57 BL/6 mice. The conditions noted are these: Hepa1-6 tumor tissue, 25 mg/kg, 2 h after the last treatment. An excerpt: Encouraged by its intriguing cellular activities, we investigated the anti-tumor effect of compound 12 in vivo. The Hepa1-6 liver cancer model, an immunocompetent macrophage-rich subcutaneous murine tumor model, was thus established. […] To further investigate whether the in vivo anti-tumor effect of compound 12 is associated with its inhibition of pro-tumoral macrophages and consequent activation of anti-tumor CD8^+ T cells, we analyzed the infiltration of macrophages and CD8^+ T cells in the tumor tissue of the Hepa1-6 model.
Animal procedures were approved by the Institutional Animal Care and Use Committee of the Shanghai Institute of Materia Medica (approval no. 2024-06-DJ-95). Mice (4–6 weeks old) were housed with five or six mice per cage in a specific pathogen-free room with a 12 h light/dark schedule at 25 °C ± 1 °C and were fed an autoclaved chow diet and water ad libitum. Hepa1-6 cells (2 × 10^6 cells) were subcutaneously implanted in the right flank of C57 BL/6 mice. When the tumors reached a volume of around 50 mm^3, the mice were randomized into the treatment groups. The vehicle groups were given the vehicle alone, and the treatment groups received compound 1 in the indicated doses via intratumoral injections once daily on the indicated days. The tumor volumes and body weights were measured twice per week. Tumor volume (TV) was calculated as follows: TV = (length × width^2)/2. Significant differences between the treated versus the vehicle groups were determined using the Student’s t-test. […] Consequently, the sample size for this treatment group was reduced to 7. Hepa1-6 tumor tissues were minced and digested using a Mouse Tumor Dissociation Kit (Miltenyi, Bergisch Gladbach, Germany). The cells were passed through a 70 μm cell strainer, stained with a fluorescent antibody or the matching isotype controls for 30 min at room temperature, and then tested using a BD CytoFLEX LX (Beckman). […] Viability was determined by staining with either the LIVE/DEAD® Fixable Violet Dead Cell Stain Kit (Invitrogen, Waltham, […], USA) or the Zombie Aqua™ Fixable Viability Kit (Biolegend, San Diego, CA, USA). Data were analyzed using FlowJo10.4 software.
Figure 4 Compound 12 inhibited Hepa1-6 tumor growth in vivo and remodeled the tumor microenvironment. […] The TVs (A) and body weights (B) are presented as the mean ± SEM. * p < 0.05 vs. the vehicle group, determined by the Student’s t-test. […] The infiltration of CD45^+ cells (C), TAMs (D), CD206^+ TAMs (E), ARG1^+ TAMs (F), CD8^+ T cells (G), GRZB^+ CD8^+ T cells (H), IFN γ^+ CD8^+ T cells (I), and TNF α^+ CD8^+ T cells (J) was tested (n = 8 mice in the vehicle group and n = 7 mice in the 12-treated group). * p < 0.05, ** p < 0.01, *** p < 0.001 vs. the vehicle group, determined by the Student’s t-test. […]

As to `COC(=O)C1=CC[C@@]23CC[C@@H]([C@@](C)(/C=C/C=C(\C)C(=O)NNCCO)OC2=O)[C@@]3(OC(C)=O)CC1` [compound 12, Methyl(3R,4S,4aS,9aR)-4a-acetoxy-3-((1E,3E)-5-(2-(2-hydroxyethyl)hydrazineyl)-4-methyl-5-oxopenta-1,3-dien-1-yl)-3-methyl-1-oxo-3,4,4a,5,6,9-hexahydro-1H-4,9a-ethanocyclohepta[c]pyran-7-carboxylate], the mrna remaining at 10 µM in assay [1] stood at 1.4 ± 1.1%. Further, in assay [2], the “TAMs with the M1-like phenotype (CD86+ TAMs, MHC II+ TAMs)” value was “marginal upregulation”; the “infiltration of CD8+ T cells and activated (GRZB+, IFNγ+, TNFα+) CD8+ T cells in CD45+ cells” value was “significantly upregulated”; the “infiltration of total immune cells (CD45+ cells)” value is given as “increasing trend”; the “tumor infiltration of total TAMs, CD206+ TAMs and ARG1+ TAMs in CD45+ cells” value was “significantly reduced”.
